Experimental findings from patent US6380239B1, “Substituted 1-oxo- and 1,3-dioxoisoindoline and method of reducing inflammatory cytokine levels” (Celgene Corporation, priority 1999, dated 2002) are described below.

For `Nc1cccc2c1CN(C(CCC(=O)O)C(=O)O)C2=O` (stereo not shown) [Example 14, 1-(4-Amino-1-oxoisoindolin-2-yl)propane-1,3-dicarboxylic acid], the melting point is 183 to 185 °C.

The compound `Nc1cccc2c1C(=O)N(C(CCC(=O)O)C(=O)O)C2=O` (stereo not shown) [Example 16, 1-(4-Amino-1,3-dioxoisoindolin-2-yl)propane-1,3-dicarboxylic acid] yielded a melting point of 198 to 200 °C.

Compound `NC(=O)CCC(C(=O)O)N1C(=O)c2cccc([N+](=O)[O-])c2C1=O` (stereo not shown) [Example 17, 2-(4-Nitro-1,3-dioxoisoindolin-2-yl)-4-carbamoylbutanoic acid] returned a melting point of 182 to 184 °C.

In turn, `NC(=O)CCC(C(=O)O)N1C(=O)c2cccc(N)c2C1=O` (stereo not shown) [Example 18, 2-(4-Amino-1,3-dioxoisoindolin-2-yl)-4-carbamoylbutanoic acid] showed a melting point of 165 to 167 °C.
